Experimental data from patent publication US6107064A, “Process for producing xanthine derivatives with bacteria and fungi” (Kyowa Hakko Kogyo Co., Ltd., priority 1994, dated 2000).

Assays:
[1] = tested on: Wistar rats, glycerol-induced renal insufficiency; assay: Renal-Protecting Activity (Glycerol-Induced Renal Insufficiency Model); format: in vivo, rat (Wistar, male); settings: for effect on increases in serum creatinine and serum urea-nitrogen: 10 mg/kg, ip
Protocol: Renal insufficiency is the condition that homeostasis of a body fluid is unable to be maintained by disorder of renal function. It is known that subcutaneous or intramuscular administration of glycerol to rats induces acute renal insufficiency characterized by renal tubular disturbance [Can. J. Physiol.
Male Wistar rats were fisted from both food and water for 18 hours. A test compound was intraperitoneally administered to the rats (dose; 0.1 ml/100 g). After 30 minutes, the rats were anesthetized with ether and the back skin was picked up and 0.8 ml/100 […] of 50% glycerol was subcutaneously administered. Twenty four hours after the glycerol injection, the rats were anesthetized with ether and 5 ml of blood was collected from the descending aorta. A sample of the collected blood was allowed to stand for 30 minutes or longer and then centrifuged at 3,000 rpm for 10 minutes to obtain the serum. Creatinine in the serum sample and urea nitrogen in the serum were determined with an autoanalyzer (AU510, Olympus Optical Co., Ltd.) using Olympus AU500/550 exclusive reagent "Katayama" in both of creatinine test (Jaffe' method) and urea-nitrogen test (enzyme method).

Wistar rats = assay: Diuretic Effect; format: in vivo, rat (Wistar, male); settings: for Increase in amount of K+ excreted / Increase in amount of Na+ excreted / Increase in amount of urine: control 0
Protocol: The experiment was carried out by using Wistar rats (male; 150 to 300 g). The rats were starved for 18 hours prior to the administration of a test compound (n=4 to 5). After a test compound dissolved in 0.4% methanol, 1% dimethylsulfoxde, and 0.01N sodium hydroxide/physiological saline was administered intravenously to the rat, the physiological saline (25 ml/kg) was orally administered thereto. Alternatively, a test compound dissolved in the physiological saline (25 ml/kg) was orally administered to the rats. Urine was collected from the rats during 4 hours after the oral administration, and urine volume was measured by a graduated measuring cylinder, and the electrolytes (Na^+ and K^+) in the urine were determined by flame photometer (775A, manufactured by Hitachi, Ltd.) The test results are shown in Tables 3 and 4.

adenosine A1 receptor = biological target: T1, adenosine A1 receptor (Rattus norvegicus, UniProt P25099); assay: Adenosine A1 Receptor Binding Test (3H-CHA binding, corpus striatum); settings: 3H-CHA 1.1 nM, 25° C., 90 minutes
T1 construct: from tissue; host or cells: rat corpus striatum, washed membrane suspension
T1 sequence (P25099 1-326): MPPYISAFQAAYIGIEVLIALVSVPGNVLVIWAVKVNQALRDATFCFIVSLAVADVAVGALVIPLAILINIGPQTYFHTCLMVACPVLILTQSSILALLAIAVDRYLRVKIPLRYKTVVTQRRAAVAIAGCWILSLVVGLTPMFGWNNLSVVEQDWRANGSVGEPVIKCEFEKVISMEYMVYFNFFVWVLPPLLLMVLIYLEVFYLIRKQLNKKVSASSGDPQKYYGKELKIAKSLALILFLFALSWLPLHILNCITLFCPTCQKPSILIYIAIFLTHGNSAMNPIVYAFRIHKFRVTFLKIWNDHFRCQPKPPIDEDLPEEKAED
Protocol: The test was conducted according to the method of Bruns et al. [Mol. Pharmacol., 29, 331 (1986)] with slight modification.
Corpus striatum of a rat was suspended in ice-cooled 50 mM Tris hydroxymethyl aminomethane hydrochloride (Tris HCl) buffer (pH 7.7) by using Polytron homogenizer (manufactured by Kinematicas Co.) The suspension was centrifuged (50,000×g, 10 minutes), and the precipitate was suspended again in the same amount of 50 mM Tris HCl buffer. The suspension was centrifuged under the same conditions, and the final precipitate was suspended once again in 50 mM Tris HCl buffer to give a tissue concentration of 100 mg (wet weight)/ml. The tissue suspension was allowed to stand at 37° C. for 30 minutes in the presence of 0.02 unit/mg tissue of adenosine deaminase (manufactured by Sigma Co.) The tissue suspension was centrifuged (50,000×g, 10 minutes) and to the obtained precipitates was added 50 mM Tris HCl buffer to give a tissue concentration of 10 mg (wet weight)/ml.
To 1 ml of the tissue suspension thus prepared were added 50 μl of cyclohexyladenosine labeled with tritium (^3 H-CHA: 27 Ci/mmol, manufactured by New England Nuclear) (final concentration: 1.1 nM) and 50 μl of a test compound. The resulting mixture was allowed to stand at 25° C. for 90 minutes and then rapidly filtered by suction through a glass fiber filter (GF/C, manufactured by Whatman Co.) The filter was immediately washed three times with 5 ml each of ice-cooled 50 mM Tris HCl buffer, and transferred to a vial, and a scintillator (EX-H, manufactured by Wako Pure Chemical Industries, Ltd.) was added thereto. The radioactivity on the filter was determined with a liquid scintillation counter (manufactured by Packard Instrument Co.)
The inhibition rate (Ki value) of the test compound against the binding of A1 receptors (^3 H-CHA binding) was calculated by the equation of Cheng-Prusoff. [formula] [Notes]1. "B" means the amount of radioactivity of ^3 H-CHA bound in the presence of a test compound at various concentrations.
2. "T" means the amount of radioactivity of ^3 H-CHA bound in the absence of a test compound.
3. "IN" means the amount of radioactivity of ^3 H-CHA bound in the presence of 10 μM N^6 -(L-2-phenylisopropyl)-adenosine (Sigma Co.)

[2] = 0.01 mg/kg po, 4 hours, control 1.00
[3] = 1.6 mg/kg po, 4 hours, control 1.00
[4] = 1 mg/kg ip, 24 hours after glycerol, control 4.57 ± 0.31, ***p < 0.001 (Student's t test)
[5] = 1 mg/kg ip, 24 hours after glycerol, control 164.9 ± 10.3, ***p < 0.001 (Student's t test)
[6] = 0.1 mg/kg po, 4 hours, control 1.00

Structure (SMILES): Cn1c(=O)c2[nH]cnc2n(C)c1=O [aminophylline, reference compound]
- effect on increases in serum creatinine and serum urea-nitrogen [1]: only a weak inhibitory tendancy

Structure (SMILES): CCCn1c(=O)c2[nH]c([C@@]34C[C@H]5C[C@@H]3C[C@@H](C4)[C@H]5O)nc2n(CCC)c1=O [Compound 4, 8-(cis-9-hydroxy-3-tricyclo[3.3.1.0^3,7]nonyl)-1,3-dipropylxanthine]
- Increase in amount of K+ excreted (Wistar rats; 0.01 mg/kg po, 4 hours): 43%
- Increase in amount of Na+ excreted (Wistar rats; 0.01 mg/kg po, 4 hours): 167%
- Increase in amount of urine (Wistar rats; 0.01 mg/kg po, 4 hours): 200%
- Na+/K+ (Wistar rats; [2]): 1.86
- Increase in amount of K+ excreted (Wistar rats; 1.6 mg/kg po, 4 hours): 35%
- Increase in amount of Na+ excreted (Wistar rats; 1.6 mg/kg po, 4 hours): 180%
- Increase in amount of urine (Wistar rats; 1.6 mg/kg po, 4 hours): 232%
- Na+/K+ (Wistar rats; [3]): 2.07
- Ki (adenosine A1 receptor): 310 pM
- Amount of creatinine in serum [1, 4]: 2.00 ± 0.17 mg/dL
- Amount of urea-nitrogen in serum [1, 5]: 76.0 ± 8.8 mg/dL

Structure (SMILES): CCCn1c(=O)c2[nH]c([C@@]34C[C@H]5C[C@@H]3C[C@@H](C4)[C@@H]5O)nc2n(CCC)c1=O [Compound 1, 8-(Trans-9-hydroxy-3-tricyclo[3.3.1.0^3,7]nonyl)-1,3-dipropylxanthine]
- Amount of K+ excreted (Wistar rats; 3 μg/kg iv, n = 5, 4 hours, control 1.47 ± 0.31): 1.24 ± 0.10 mEq/kg
- Na+/K+ (Wistar rats; 3 μg/kg iv, n = 5, 4 hours, control 1.52): 2.99
- Amount of Na+ excreted (Wistar rats; 3 μg/kg iv, n = 5, 4 hours, control 2.23 ± 0.61, **p < 0.01 (Dunnett's test)): 3.71 ± 0.12 mEq/kg
- Amount of urine (Wistar rats; 3 μg/kg iv, n = 5, 4 hours, control 14.5 ± 1.8, *p < 0.05 (Dunnett's test)): 26.4 mL/kg
- Increase in amount of K+ excreted (Wistar rats; 0.01 mg/kg po, 4 hours): 11%
- Increase in amount of Na+ excreted (Wistar rats; 0.01 mg/kg po, 4 hours): 139%
- Increase in amount of urine (Wistar rats; 0.01 mg/kg po, 4 hours): 99%
- Na+/K+ (Wistar rats; [2]): 2.16
- Increase in amount of K+ excreted (Wistar rats; 0.1 mg/kg po, 4 hours): -9%
- Increase in amount of Na+ excreted (Wistar rats; 0.1 mg/kg po, 4 hours): 148%
- Increase in amount of urine (Wistar rats; 0.1 mg/kg po, 4 hours): 105%
- Na+/K+ (Wistar rats; [6]): 2.72
- Ki (adenosine A1 receptor): 230 pM
- Amount of creatinine in serum ([1]; 0.01 mg/kg ip, 24 hours after glycerol; control 4.35 ± 0.23; **^1) p < 0.01 (Dunnett's test)): 2.00 ± 0.21 mg/dL
- Amount of urea-nitrogen in serum ([1]; 0.01 mg/kg ip, 24 hours after glycerol; control 139.7 ± 10.2; marked ***^1)): 69.9 ± 8.4 mg/dL
- Amount of creatinine in serum ([1]; 0.1 mg/kg ip, 24 hours after glycerol; control 4.35 ± 0.23; **^1) p < 0.01 (Dunnett's test)): 2.32 ± 0.16 mg/dL
- Amount of urea-nitrogen in serum ([1]; 0.1 mg/kg ip, 24 hours after glycerol; control 139.7 ± 10.2; **^1) p < 0.01 (Dunnett's test)): 64.4 ± 4.5 mg/dL

Structure (SMILES): CCCn1c(=O)c2[nH]c([C@]34C[C@@H]5[C@@H](O)[C@H](C3)[C@H]3[C@@H]5[C@H]34)nc2n(CCC)c1=O [Compound 5, 8-(Trans-9-hydroxy-3-tetracyclo[3.3.1.0^3,7 .0^6,8]-nonyl)-1,3-dipropylxanthine]
- Increase in amount of K+ excreted (Wistar rats; 0.0025 mg/kg po, 4 hours): 8%
- Increase in amount of Na+ excreted (Wistar rats; 0.0025 mg/kg po, 4 hours): 68%
- Increase in amount of urine (Wistar rats; 0.0025 mg/kg po, 4 hours): 77%
- Na+/K+ (Wistar rats; 0.0025 mg/kg po, 4 hours, control 1.00): 1.56
- Increase in amount of K+ excreted (Wistar rats; 0.1 mg/kg po, 4 hours): 23%
- Increase in amount of Na+ excreted (Wistar rats; 0.1 mg/kg po, 4 hours): 277%
- Increase in amount of urine (Wistar rats; 0.1 mg/kg po, 4 hours): 256%
- Na+/K+ (Wistar rats; [6]): 3.07
- Ki (adenosine A1 receptor): 310 pM
- Amount of creatinine in serum ([1]; 0.01 mg/kg ip, 24 hours after glycerol, control 3.90 ± 0.24, ***p < 0.001): 2.18 ± 0.11 mg/dL
- Amount of urea-nitrogen in serum ([1]; 0.01 mg/kg ip, 24 hours after glycerol, control 124.9 ± 7.5, ***p < 0.001): 61.3 ± 6.1 mg/dL

Structure (SMILES): CCCn1c(=O)c2[nH]c(C34CC5CC3CC(O)(C5)C4)nc2n(CCC)c1=O (stereo not drawn) [Compound 3, 8-(1-hydroxy-3-tricyclo[3.3.1.0^3,7]nonyl)-1,3-dipropylxanthine]
- Increase in amount of K+ excreted (Wistar rats; 0.025 mg/kg po, 4 hours): 32%
- Increase in amount of Na+ excreted (Wistar rats; 0.025 mg/kg po, 4 hours): 238%
- Increase in amount of urine (Wistar rats; 0.025 mg/kg po, 4 hours): 324%
- Na+/K+ (Wistar rats; 0.025 mg/kg po, 4 hours, control 1.00): 2.55
- Increase in amount of K+ excreted (Wistar rats; 0.1 mg/kg po, 4 hours): 18%
- Increase in amount of Na+ excreted (Wistar rats; 0.1 mg/kg po, 4 hours): 272%
- Increase in amount of urine (Wistar rats; 0.1 mg/kg po, 4 hours): 356%
- Na+/K+ (Wistar rats; [6]): 3.15
- Ki (adenosine A1 receptor): 500 pM
- Amount of creatinine in serum ([1]; 0.03 mg/kg ip, 24 hours after glycerol, control 3.57 ± 0.21, ***p < 0.001): 1.64 ± 0.17 mg/dL
- Amount of urea-nitrogen in serum ([1]; 0.03 mg/kg ip, 24 hours after glycerol, control 149.7 ± 7.0, ***p < 0.001): 49.0 ± 6.9 mg/dL

Structure (SMILES): CCCn1c(=O)c2[nH]c([C@]34C[C@@H]5C[C@H](C3)[C@@H](O)[C@H]4C5)nc2n(CCC)c1=O (relative stereo) [Compound 2, 8-(trans-6-hydroxy-3-tricyclo[3.3.1.0^3,7]nonyl)-1,3-dipropylxanthine]
- Increase in amount of K+ excreted (Wistar rats; 0.1 mg/kg po, 4 hours): 12%
- Increase in amount of Na+ excreted (Wistar rats; 0.1 mg/kg po, 4 hours): 107%
- Increase in amount of urine (Wistar rats; 0.1 mg/kg po, 4 hours): 134%
- Na+/K+ (Wistar rats; [6]): 1.85
- Increase in amount of K+ excreted (Wistar rats; 1.6 mg/kg po, 4 hours): 15%
- Increase in amount of Na+ excreted (Wistar rats; 1.6 mg/kg po, 4 hours): 220%
- Increase in amount of urine (Wistar rats; 1.6 mg/kg po, 4 hours): 297%
- Na+/K+ (Wistar rats; [3]): 2.77
- Ki (adenosine A1 receptor): 240 pM
- Amount of creatinine in serum [1, 4]: 1.88 ± 0.20 mg/dL
- Amount of urea-nitrogen in serum [1, 5]: 58.0 ± 8.8 mg/dL

Structure (SMILES): NS(=O)(=O)c1cc(C(=O)O)c(NCc2ccco2)cc1Cl [furosemide, reference compound]
- effect on increases in serum creatinine and serum urea-nitrogen [1]: a tendancy of deterioration
